Patent US20070092444A1, “Inhibition of inward sodium currents in cancer” (priority 2003, published 2007)
Entries after “also recorded” stand apart in the source; their conditions may differ.

Columns and labels:
[1] = system: constitutive amiloride-sensitive inward Na^+ current in high-grade glioma (GBM) cells; assay: Whole-cell patch clamp, freshly resected and primary cultured high-grade glioma (Grade III/IV, GBM) cells; format: cell-based, human
Description: (§1) FIGS. 2A-C show representative whole-cell patch clamp recordings.
(§2) FIGS. 4A and B show summary I-V curves of freshly resected normal astrocytes (FIG. 4A) and GBM cells (FIG. 4B). Inward currents (−60 mV) were −7.5±1.2 pA (normal) and −43.8±14.5 pA (GBM). Outward currents (+40 mV) averaged 42.2±2.4 pA and 47.2±12.5 pA for normal and GBMs, respectively. FIGS. 4C and D show summary amiloride-sensitive (difference) currents of freshly resected normal astrocytes (FIG. 4C) and GBM cells (FIG. 4D).
(§3) A constitutive amiloride-sensitive inward Na^+ conductance has been reported in human high-grade glioma cells. […] These inward Na^+ currents were not present in normal astrocytes or in low-grade astrocytomas (e.g., pilocytic astrocytomas). However, the composition of the channels responsible for the inward Na^+ conductance has not been reported. FIGS. 2A-C show representative whole cell patch-clamp measurements on tissue derived from a freshly resected human glioblastoma multiforme (GBM; WHO grade IV), normal astrocytes obtained from patients undergoing surgery for intractable epilepsy, and primary cultures of different grade glial tumors. […] However, there was no significant inward Na^+ current in normal astrocytes and Grades I and II astrocytoma cells (FIG. 2C).
Summary current-voltage (I-V) curves are presented for normal astrocytes and GBM cells in FIG. 4A and FIG. 4B, respectively, while difference I-V curves for normal astrocytes and GBM cells are presented in FIG. 4C and FIG. 4D, respectively. The GBM cells are depolarized by an average of 31 mV compared to the normal astrocytes under these recording conditions. The depolarized zero current membrane potential is due to the presence of an enhanced Na^+ conductance as is shown in the difference I-V curves.
(§4) FIG. 19A show representative whole-cell patch clamp recordings of ZR-75-1 and SKMEL-2 cells in the basal state.

[2] = system: constitutive inward Na^+ current of SKMEL-2 melanoma cells; assay: Whole-cell patch clamp, SKMEL-2 melanoma cells; format: cell-based
Description: (§5) FIGS. 5A-5C show representative whole-cell patch clamp recordings.
(§6) FIGS. 19A-19C show representative whole-cell patch clamp recordings.
(§7) A constitutive amiloride-sensitive inward Na^+ conductance was also observed in the breast carcinoma cell line ZR-75-1 and the melanoma cell line SKMEL-2. FIGS. 5A-C show representative whole cell patch-clamp measurements on ZR-75-1 cells and SKMEL-2 cells.
as §4

[3] = system: inward Na^+ currents in SK-MG cells; assay: Whole-cell patch clamp, SK-MG glioma cells; format: cell-based, human
Procedure: (§8) FIGS. 7A-7C show representative whole-cell patch clamp recordings.
(§9) The amiloride-sensitive inward Na^+ currents are measured regardless of whether ASIC2 is absent or present (FIGS. 7A-D). Whole-cell patch clamp recordings were obtained from U87-MG, SK-MG, and D54-MG glioma cells in the basal state. […] This inhibition of the inward current occurred regardless of the absence or presence of ASIC2 mRNA (FIG. 7D) (as detected by RT-PCR as described above).
as §4

ASIC2 = biological target: T1, ASIC2 (Homo sapiens, UniProt Q16515); assay: Acid-activated currents in voltage-clamped Xenopus oocytes expressing ASIC2; format: cell-based; design: expressed in transfected cells; host or cells: Xenopus oocytes (cRNA injection); conditions: pHo 4.0, −60 mV
T1 sequence (Q16515 1-512): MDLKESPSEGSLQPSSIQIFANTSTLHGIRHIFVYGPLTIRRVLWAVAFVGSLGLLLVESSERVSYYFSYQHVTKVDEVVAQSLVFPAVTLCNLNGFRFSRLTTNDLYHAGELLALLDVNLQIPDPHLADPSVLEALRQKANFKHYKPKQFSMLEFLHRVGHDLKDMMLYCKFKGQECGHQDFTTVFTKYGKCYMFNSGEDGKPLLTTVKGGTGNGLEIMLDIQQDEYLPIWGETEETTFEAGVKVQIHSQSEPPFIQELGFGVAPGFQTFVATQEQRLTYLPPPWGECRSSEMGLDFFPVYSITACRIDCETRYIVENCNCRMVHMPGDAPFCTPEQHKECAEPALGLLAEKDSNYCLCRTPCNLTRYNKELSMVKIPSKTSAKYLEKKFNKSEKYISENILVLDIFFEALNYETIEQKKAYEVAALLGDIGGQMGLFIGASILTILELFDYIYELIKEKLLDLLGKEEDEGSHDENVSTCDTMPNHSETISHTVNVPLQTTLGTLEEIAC
Description: FIGS. 8A-C show acid-activated ASIC currents in Xenopus oocytes. ASIC 2 (FIG. 8A), ASIC1 (FIG. 8B) and the combination of ASIC2 and ASIC1 (FIG. 8C) were examined. […] Each oocyte served as its own control.
(§10) Membrane potential was held at −60 mV, and the pHo was step decreased to 4.0 for 10 s, and then returned to 7.4 for 30 s before repeating the sequence.
Xenopus oocytes were used to express ASIC1 and ASIC2 mRNA individually and in combination. Oocyte preparation, cRNA injection, and two-electrode voltage clamp recordings were performed as described (33,67-69).
as §10

[4] = system: inward Na^+ currents in U87-MG cells; assay: Whole-cell patch clamp, U87-MG glioma cells; format: cell-based, human
Procedure: as §8, §9, §4

[5] = system: constitutive inward Na^+ current of ZR-75-1 breast carcinoma cells; assay: Whole-cell patch clamp, ZR-75-1 breast carcinoma cells; format: cell-based
Description: as §5, §6, §7, §4

[6] = system: whole-cell currents of normal human astrocytes; assay: Whole-cell patch clamp, normal human astrocytes; format: cell-based
Description: as §1, §2
as §3, with “2C). […]” for “2C).”

primary human astrocytes = assay: Transwell Migration Assay, primary human astrocytes; format: cell-based
Procedure: Approximately 10,000 cells were added to the upper side of a filter insert perforated with 5-8 μm holes, and induced to migrate through these pores toward the extracellular matrix protein vitronectin (coated on the underside of the filter). PcTX1 or control scrambled PcTX1 peptide was added to each compartment at the same time as the cells. BSA-coated filter inserts were used as negative controls. After 3 h, cells were fixed with 4% paraformaldehyde, and subsequently stained with crystal violet. Cells were counted on an inverted microscope, averaging five fields per Transwell chamber. Four-to-ten chambers were used under each condition.

Row | Compound | inhibition of inward Na^+ currents ([1]; 100 μM amiloride, Grade III and IV tumor cells, GBM) | inhibition of inward currents ([2]; 100 μM amiloride) | inhibition of inward Na^+ currents ([3]; 100 μM amiloride) | inhibition of acid-activated currents (ASIC2; 400 μM amiloride) | inhibition of inward Na^+ currents ([4]; 100 μM amiloride) | inhibition of inward currents ([5]; 100 μM amiloride) | effect on currents ([6]; 100 μM amiloride, normal astrocytes) | block of constitutive inward Na^+ current ([1]; 10 nM peptide, freshly resected GBM) | block of inward basally activated currents ([1]; primary cultured GBM) | block of constitutive inward Na^+ current ([2]; 10 nM synthetic PcTX1) | block of constitutive inward Na^+ current ([3]; 10 nM peptide) | block of acid-induced inward currents (ASIC2; 1 nM peptide (FIG. 20)) | block of inward basally activated currents [4] | block of constitutive inward Na^+ current ([5]; 10 nM synthetic PcTX1) | effect on Transwell migration (primary human astrocytes) | effect on whole-cell currents ([6]; PcTX1 (10 nM, FIG. 18B), normal human astrocytes)
1 | N=C(N)NC(=O)c1nc(Cl)c(N)nc1N [amiloride] | completely inhibited; also recorded: blocked; also recorded: significantly inhibited | completely inhibited | inhibited; also recorded: likewise blocked | inhibited | inhibited; also recorded: likewise blocked | completely inhibited | did not affect |  |  |  |  |  |  |  |  | 
2 | Psalmotoxin 1 [PcTX1] |  |  |  |  |  |  |  | blocked | similarly blocked | blocked | blocked | not those inward Na^+ currents mediated by ASIC2; also recorded: not the inward currents mediated by ASIC2 | similarly blocked | blocked | no effect | without effect
